# Measured values: paper PMC10106510 (European Journal of Medicinal Chemistry, 2023)
# Key:
# SARS-CoV-2 PLpro [1] = target: T1, SARS-CoV-2 PLpro (Severe acute respiratory syndrome coronavirus 2, UniProt P0DTD1); conditions: cited from earlier work
# MERS-CoV PLpro = conditions: cited from earlier work
# CYP3A4 = CYP3A4 (Homo sapiens, UniProt P08684)
# SARS-CoV-2 PLpro [2] = target: T1, SARS-CoV-2 PLpro; assay: Papain-like protease; conditions: variable results in dose-dependent study, IC50 not determined
# [3] = tested on: SARS-CoV-2 RNA (ORF1b, Spike) in infected Caco-2 cells; type: cell-based
# Balb/c mice [4] = tested on: Balb/c mice
# Balb/c mice [5] = conditions: 25, 50, and 100 mg/kg, intraperitoneal
# [6] = tested on: SARS-CoV-2 infected Caco-2 cells (IFN-α, IL-6, OAS1 mRNA); type: cell-based, Human; conditions: 20 μg/mL
# CYP3A4, sequence (P08684 whole entry): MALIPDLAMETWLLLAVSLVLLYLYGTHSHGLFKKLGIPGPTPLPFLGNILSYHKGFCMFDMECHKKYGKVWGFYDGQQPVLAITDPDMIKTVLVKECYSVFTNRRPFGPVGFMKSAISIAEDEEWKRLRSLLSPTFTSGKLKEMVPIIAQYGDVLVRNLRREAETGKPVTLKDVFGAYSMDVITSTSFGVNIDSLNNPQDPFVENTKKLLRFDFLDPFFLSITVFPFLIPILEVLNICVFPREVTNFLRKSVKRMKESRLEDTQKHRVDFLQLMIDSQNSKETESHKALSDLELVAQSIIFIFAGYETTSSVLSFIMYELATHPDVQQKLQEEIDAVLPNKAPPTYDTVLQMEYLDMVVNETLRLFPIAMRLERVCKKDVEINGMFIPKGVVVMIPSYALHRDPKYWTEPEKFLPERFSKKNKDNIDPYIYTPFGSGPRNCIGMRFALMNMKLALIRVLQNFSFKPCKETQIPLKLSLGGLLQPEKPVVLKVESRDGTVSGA
smiles,measurement,setting,value
Cc1ccc(N)cc1C(=O)N[C@H](C)c1cccc2ccccc12 [GRL0617],inhibitory activity in a cell-based assay,SARS-CoV-2 PLpro [1],moderate to weak
same,activity against MERS-CoV PLpro,MERS-CoV PLpro,inactivity
CC1(C)[C@H]2COc3ccc4ccccc4c3[C@H]2N=C2SC=C(c3ccc(S(=O)(=O)N4CCOCC4)cc3)N21 [SIMR1493],CYP3A4 IC50,CYP3A4,134 µM
COC(=O)C[C@@H]1COc2ccccc2[C@H](C(=O)NC(C)(C)C)N(CCc2c[nH]c3ccc(OC)cc23)C(=O)[C@@H]1c1nnc(-c2cccc(C(F)(F)F)c2)o1 [SIMR2304],"PLpro inhibitory activity, initial screening",SARS-CoV-2 PLpro [2],very strong inhibitory activity
COc1ccc2[nH]c3c(c2c1)C[C@]1(OC)CC[C@H]2c4[nH]c5ccccc5c4CCN2[C@@H]1C3 [SIMR3030],Spike RNA inhibition,"[3]; 20 μg/mL, 1, 6 and 12 h",observed only after 6 and 12 h
same,viral ORFb1 RNA inhibition,"[3]; 20 μg/mL, at 1, 6 and 12 h",more than 70%
same,platelet population,"Balb/c mice [4]; 25 mg/kg multiple dose, hematological analysis",slight reduction
same,"signs of toxicity or weight loss, multiple dose","Balb/c mice [4]; 12.5 and 25 mg/kg, intraperitoneal, daily for 14 days",no signs of toxicity or weight loss
same,"microscopic investigation of organs (liver, spleen, kidneys, heart, lungs)","Balb/c mice [4]; H&E staining, 12.5 and 25 mg/kg multiple dose",no histologic variations and no signs of toxic injury
same,"signs of toxicity or body weight loss, single dose",Balb/c mice [5],no signs of toxicity or body weight loss
same,IL-6 mRNA expression,"[6]; at 1, 3 and 12 h",significantly reduced
same,OAS1 mRNA expression,"[6]; at 1, 3 and 12 h",significantly reduced
same,IFN-α mRNA expression,[6]; at 1 and 3 h,significantly reduced
